± gives the expanded uncertainty stated by the source.
How the values were obtained:
[1] = refractive index (Na D-line) (dimensionless); details: 293.15 K; 101.33 kPa; Liquid; Standard Abbe refractometry
[2] = Liquid, Ebulliometric method (Recirculating still)

For CCCCO [butan-1-ol], the refractive index [1] was 1.3989 ± 0.002, the “vapor or sublimation pressure” value ([2]; 342.95 K) was 13.4 ± 0.24 kPa and the “vapor or sublimation pressure” value ([2]; 352.65 K) was 21.4 ± 0.24 kPa. For the same compound, the “vapor or sublimation pressure” value ([2]; 362.55 K) was 33.4 ± 0.25 kPa.
For CCCC(C)=O [pentan-2-one], the refractive index [1] was 1.3893 ± 0.002, the “vapor or sublimation pressure” value ([2]; 342.34 K) was 32.7 ± 0.34 kPa and the “vapor or sublimation pressure” value ([2]; 342.95 K) was 34.3 ± 0.34 kPa. The “vapor or sublimation pressure” value ([2]; 352.05 K) was 47.8 ± 0.27 kPa, the “vapor or sublimation pressure” value ([2]; 352.65 K) was 48.7 ± 0.27 kPa and the “vapor or sublimation pressure” value ([2]; 361.65 K) was 66.2 ± 0.31 kPa. For the same compound, the “vapor or sublimation pressure” value ([2]; 362.55 K) was 68.1 ± 0.31 kPa.
For CCCO [propan-1-ol], the refractive index [1] was 1.3848 ± 0.002, the “vapor or sublimation pressure” value ([2]; 342.34 K) was 31.5 ± 0.29 kPa and the “vapor or sublimation pressure” value ([2]; 352.05 K) was 49.5 ± 0.31 kPa. The “vapor or sublimation pressure” value ([2]; 361.65 K) was 73.2 ± 0.33 kPa.
